The values that follow come from patent publication US20190328822A1, “METHODS AND COMPOSITIONS FOR PREVENTING OR TREATING DOMINANT OPTIC ATROPHY” (STEALTH BIOTHERAPEUTICS CORP, priority 2014, published 2019).

Non-standard residues stand in square brackets, D forms with d. No end group written: not given here.

One series concerns reactive oxygen species. As to conditions: cited from earlier work.
The subject of series [1] is plasma membrane of several mammalian cell types. As to conditions: energy-independent manner; cited from earlier work.
For series [2] the following is noted: cited from earlier work.
In another series the target is mu-opioid receptor (Homo sapiens, UniProt P35372). Put plainly: mu-opioid receptor agonist activity.
Series [3] relates to LHON patients. Conditions: cited from earlier work.
Series [4] relates to LHON patients. Conditions: 85 LHON patients, 900 mg/d for 24 weeks; cited from earlier work.
Series [5] has as its system Human subjects at risk of having, suspected of having, or diagnosed as having DOA. Put plainly: Treatment and prevention of DOA in human subjects, ophthalmic solution (Example 2). Type of series: in vivo. As to conditions: 1 drop of 1%, 3%, or 5% ophthalmic solution three times per day for 18 months. The protocol:
Human subjects at risk of having (e.g., diagnosed with an OPA1 gene mutation, but who are not yet symptomatic, e.g., no visual impairment), suspected of having, or diagnosed as having DOA are administered a therapeutically effective amount of an aromatic-cationic peptide of the present technology, such as D-Arg-2′,6′-Dmt-Lys-Phe-NH2, alone or in conjunction with one or more additional therapeutic agents. Subjects will receive 1 drop of 1%, 3%, or 5% D-Arg-2′,6′-Dmt-Lys-Phe-NH2 ophthalmic solution in a randomly selected study eye three times per day for 18 months. The remaining eye of these subjects serves as the untreated internal control. The patients in the control group will be administered 1 drop of vehicle solution in one of their eyes (fellow control eye) three times per day over the course of the 18 month study. Subjects are assessed weekly for signs and symptoms associated with DOA according to one or more criteria described herein (e.g., one or more of visual loss, optic nerve atrophy, palor of the neuroretianl rim, presence of temporal pigmentary grey cresent, thinning of the fiber layer at the optic nerve rim, papillary excavation, scotoma, changes in color vision, etc.).

Sequence of mu-opioid receptor (P35372 whole entry, species assumed): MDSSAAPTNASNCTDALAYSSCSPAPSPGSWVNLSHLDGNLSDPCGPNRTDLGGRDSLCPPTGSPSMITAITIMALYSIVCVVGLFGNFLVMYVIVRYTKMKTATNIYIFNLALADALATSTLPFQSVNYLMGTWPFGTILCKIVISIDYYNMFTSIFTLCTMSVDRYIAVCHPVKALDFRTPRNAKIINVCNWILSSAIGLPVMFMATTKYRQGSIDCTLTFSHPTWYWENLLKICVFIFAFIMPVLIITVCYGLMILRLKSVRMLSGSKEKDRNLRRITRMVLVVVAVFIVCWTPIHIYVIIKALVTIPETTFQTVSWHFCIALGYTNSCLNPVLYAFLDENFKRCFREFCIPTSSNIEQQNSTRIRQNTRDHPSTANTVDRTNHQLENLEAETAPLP

Turning to `Cc1c(C)c2c(c(C)c1O)CCC(C)(C(=O)O)O2` (centres unmarked) [Trolox], the “protective effects in vitro” value in the series with reactive oxygen species is “modest protective effects”. For the molecule `N[C@@H](CCC(=O)N[C@@H](CS)C(=O)NCC(=O)O)C(=O)O` [glutathione], in the series on reactive oxygen species, the “protective effects in vitro” value is “modest protective effects”. Regarding 2′,6′-Dmt-D-Arg-Phe-Lys-NH2, the “penetration of the plasma membrane” value in series [1] was “readily penetrates”.

Consider `COC1=C(OC)C(=O)C(C/C=C(\C)CC/C=C(\C)CC/C=C(\C)CC/C=C(\C)CC/C=C(\C)CC/C=C(\C)CC/C=C(\C)CC/C=C(\C)CC/C=C(\C)CCC=C(C)C)=C(C)C1=O` [coenzyme Q-10], for which, in the series on reactive oxygen species, the “protective effects in vitro” value was “modest protective effects”. Moreover, the “delivery crossing lipid membranes to mitochondria” value in series [2] (exogenous) is given as “poor delivery”. For the molecule F[dR]FK-NH2, the “mu-opioid receptor agonist activity” value on mu-opioid receptor is listed as “does not have mu-opioid receptor agonist activity”. As for `COC1=C(OC)C(=O)C(CCCCCCCCCCO)=C(C)C1=O` [idebenone], the “diameter of the central scotomas after treatment” value with LHON patients [3] (one 11778/ND4 LHON patient, from about 20 degrees) is recorded as “less than 5 degrees”. Besides, the “recovery of visual acuity, color vision, and visual fields” value with LHON patients [3] (seven LHON patients, about 450 mg/d) was “showed recovery of visual acuity, color vision, and visual fields”. The “final visual acuity vs placebo group” value in the series on LHON patients [4] is “better final visual acuity than the placebo group”. For the same molecule, in series [2] (compared with coenzyme Q10), the delivery to mitochondria result was “higher delivery to mitochondria” and the “efficiency in crossing the blood-brain barrier” value was “higher efficiency in crossing the blood-brain barrier”. Consider “D-Arg-2′,6′-dimethyltyrosine-Lys-Phe-NH2 [D-Arg-2′,6′-Dmt-Lys-Phe-NH2]”, for which, in series [5], the “onset and severity of the symptoms of DOA” value is “prevent the onset of, delay the onset of, and/or reduce the severity of the symptoms of DOA”. The “mu-opioid receptor agonist activity” value on mu-opioid receptor is on record as “does not have mu-opioid receptor agonist activity”. Take Tyr-D-Arg-Phe-Lys-NH2: the “mu-opioid receptor agonist activity” value at mu-opioid receptor is “has mu-opioid receptor agonist activity”.
